According to US20250275969A1, “METHODS OF TREATING MALIGNANT PERIPHERAL NERVE SHEATH TUMOR (MPNST) USING LSD1 INHIBITORS” (ORYZON GENOMICS, S.A., priority 2022, published 2025):

Tests used:
Type in all cases: cell-based
sNF96.2 = experiment: MPNST viability assay (6 days, MTT or AlamarBlue); conditions: for EC50: cell viability, sNF96.2, 6 days of treatment
Procedure: (§1) Mycoplasma-free MPNST cell lines (see Table 1) were seeded in 50 μl/well of complete medium (DMEM high glucose supplemented with 1× GlutaMAX™, 1× sodium pyruvate and 10% fetal bovine serum (FBS), Thermo Fisher) in 96-well plates at the optimal cell density to ensure log-phase growth throughout the duration of the experiment (see Table 1). The day after seeding, 50 μl of medium containing 9 serial dilutions (1:3) of 2×-concentrated iadademstat (LSD1 inhibitor; used as the dihydrochloride salt) were added to the cells to obtain 100 μl of cells treated with 1×-concentrated compound at each dilution. Etoposide (topoisomerase II/DNA synthesis inhibitor) was also included as a positive control of the assay. Additionally, from the MPNST cell line panel, two cell lines (sNF96.2 and sNF02.2) were selected to evaluate the effect of other LSD1 inhibitors, i.e. bomedemstat (bis-tosylate salt) and pulrodemstat (besylate salt). Each experimental condition was tested in technical triplicates, including medium-only wells and vehicle-treated controls for background correction and normalization, respectively. After treatment, cells were incubated at 37° C. in a humidified and controlled 5% CO2 atmosphere for 72 h. At this time-point, compound and medium refreshment was performed by adding 50 μl of medium supplemented with 1×-concentrated compound at each corresponding dilution. Cells were incubated for additional 72 h (for a total of 6 days) prior to evaluating cell viability using either the MTT assay (Sigma-Aldrich) or AlamarBlue™ Cell viability reagent (Life Technologies), following manufacturer's instructions. Background was calculated as the mean of the values of medium-only controls and subtracted from each data point. The average of background-corrected technical triplicates was calculated and normalized by the mean of vehicle-treated controls (corresponding to 100% of viability). Data were analyzed using GraphPad PRISM® version 9.0.1 (GraphPad Software, Inc., La Jolla, CA/USA) to calculate the best-fitting curves and the EC50 values (corresponding to the concentration of compound at which a half (50%) maximal effect is obtained; lower EC50 values thus indicate greater potency).
(§2) LSD1 inhibitors such as iadademstat have been reported to exert their therapeutic effect by inducing cancer cell differentiation and inhibiting cancer cell proliferation rather than by killing cancer cells (Sacilotto N et al., ACS Pharmacol Transl Sci, 2021, 4(6):1818-34, doi: 10.1021/acsptsci.1c00223). In line with this, a cancer cell viability reduction of more than 30% reflects a potent therapeutic effect of the corresponding LSD1 inhibitor. In the present experiment, the response obtained after LSD1 inhibitor treatment was therefore classified into the following three groups: (1) strong response (viability reduction >30%); (2) medium response (viability reduction >15% and <30%); (3) low response (viability reduction <15%). Table 3 summarizes the EC50 values obtained for etoposide (the positive control of the assay) and iadademstat together with the classification according to viability reduction after LSD1 inhibitor treatment.

sNF02.2 = experiment: MPNST viability assay (6 days, MTT or AlamarBlue); conditions: for EC50: cell viability, sNF02.2, 6 days of treatment
Procedure: as §1, §2

NMS-2 = experiment: MPNST viability assay (6 days, MTT or AlamarBlue)
Procedure: as §1, §2

S462 = experiment: MPNST viability assay (6 days, MTT or AlamarBlue); conditions: for EC50: cell viability, S462, 6 days of treatment
Procedure: as §1, §2

MPNST-NF1-18b = experiment: MPNST viability assay (6 days, MTT or AlamarBlue); conditions: for EC50: cell viability, 6 days of treatment
Procedure: as §1, §2

HS-PSS = experiment: MPNST viability assay (6 days, MTT or AlamarBlue); conditions: for EC50: cell viability, 6 days of treatment
Procedure: as §1, §2

ST88-14 = experiment: MPNST viability assay (6 days, MTT or AlamarBlue); conditions: for EC50: cell viability, ST88-14, 6 days of treatment
Procedure: as §1, §2

MPNST-SP-10 = experiment: MPNST viability assay (6 days, MTT or AlamarBlue); conditions: for EC50: cell viability, MPNST-SP-10, 6 days of treatment
Procedure: as §1, §2

MPNST-SP-01 = experiment: MPNST viability assay (6 days, MTT or AlamarBlue)
Procedure: as §1, §2

MPNST-NF1-09 = experiment: MPNST viability assay (6 days, MTT or AlamarBlue)
Procedure: as §1, §2

90-8TL = experiment: MPNST viability assay (6 days, MTT or AlamarBlue); conditions: for EC50: cell viability, 6 days of treatment
Procedure: as §1, §2

MPNST-NF1-08 = experiment: MPNST viability assay (6 days, MTT or AlamarBlue)
Procedure: as §1, §2

[1] = system: panel of 12 MPNST cell lines; experiment: MPNST viability assay, summary over the cell line panel
Procedure: as §1
A panel of 12 MPNST cell lines was used to evaluate the effects of the LSD1 inhibitor iadademstat on MPNST cell viability after 6 days of treatment, and etoposide was used as a positive control of the assay. In order for the in vitro experiments to reliably mirror the situation in the clinical setting, where MPNST patients feature a great genomic heterogeneity, a panel of different types of MPNST cell lines was used. The panel comprises both MPNST immortalized lines and MPNST cell lines derived from patients. […]

[2] = viability reduction class, 6 days

## COc1ccc(-c2c(-c3ccc(C#N)c(F)c3)nc(N3CCC(N)CC3)n(C)c2=O)cc1F [Pulrodemstat, 4-[2-(4-aminopiperidin-1-yl)-5-(3-fluoro-4-methoxyphenyl)-1-methyl-6-oxo-1,6-dihydropyrimidin-4-yl]-2-fluorobenzonitrile]
sNF96.2; 144 h
  EC50: 0.261 nM
sNF02.2; 144 h
  EC50: 0.166 nM

## N[C@H]1CC[C@H](N[C@@H]2C[C@H]2c2ccccc2)CC1 [iadademstat, (trans)-N1-((1R,2S)-2-phenylcyclopropyl)cyclohexane-1,4-diamine]
NMS-2; viability reduction class, NMS-2, 6 days
  Response to iadademstat (viability assay): Low response (low response (viability reduction <15%))
sNF96.2; 144 h
  EC50: 0.042 nM
sNF96.2; sNF96.2, compared with bomedemstat and pulrodemstat
  potency among the LSD1 inhibitors tested (in words): highest potency
sNF96.2; viability reduction class, sNF96.2, 6 days
  Response to iadademstat (viability assay): Strong response (strong response (viability reduction >30%))
S462; 144 h
  EC50: 0.087 nM
S462; viability reduction class, S462, 6 days
  Response to iadademstat (viability assay): Strong response (strong response (viability reduction >30%))
MPNST-NF1-18b; 144 h
  EC50: 0.025 nM
MPNST-NF1-18b; [2]
  Response to iadademstat (viability assay): Strong response (strong response (viability reduction >30%))
HS-PSS; 144 h
  EC50: 0.046 nM
HS-PSS; [2]
  Response to iadademstat (viability assay): Medium response (medium response (viability reduction >15% and <30%))
sNF02.2; 144 h
  EC50: 0.017 nM
sNF02.2; sNF02.2, compared with bomedemstat and pulrodemstat
  potency among the LSD1 inhibitors tested (in words): highest potency
sNF02.2; viability reduction class, sNF02.2, 6 days
  Response to iadademstat (viability assay): Medium response (medium response (viability reduction >15% and <30%))
ST88-14; 144 h
  EC50: 0.039 nM
ST88-14; viability reduction class, ST88-14, 6 days
  Response to iadademstat (viability assay): Medium response (medium response (viability reduction >15% and <30%))
MPNST-SP-10; 144 h
  EC50: 0.033 nM
MPNST-SP-10; viability reduction class, MPNST-SP-10, 6 days
  Response to iadademstat (viability assay): Medium response (medium response (viability reduction >15% and <30%))
MPNST-SP-01; viability reduction class, MPNST-SP-01, 6 days
  Response to iadademstat (viability assay): Low response (low response (viability reduction <15%))
MPNST-NF1-09; viability reduction class, MPNST-NF1-09, 6 days
  Response to iadademstat (viability assay): Low response (low response (viability reduction <15%))
90-8TL; 144 h
  EC50: 0.026 nM
90-8TL; [2]
  Response to iadademstat (viability assay): Medium response (medium response (viability reduction >15% and <30%))
MPNST-NF1-08; viability reduction class, MPNST-NF1-08, 6 days
  Response to iadademstat (viability assay): Low response (low response (viability reduction <15%))
[1]; 3 out of 12 cell lines, 6-day treatment
  cell lines showing a strong viability reduction: 25%
[1]; 5 out of 12 cell lines, 6-day treatment
  cell lines showing a medium viability reduction: 41.67%
[1]; medium- and strong-responding cell lines
  EC50 values (in words): subnanomolar
[1]; of 12 cell lines, 6-day treatment
  medium- and strong-responding cell lines, total: 66.67%

## CN1CCN(C(=O)[C@H](CCCN[C@@H]2C[C@H]2c2ccc(F)cc2)NC(=O)c2ccc(-n3ccnn3)cc2)CC1 [Bomedemstat, N-[(2S)-5-{[(1R,2S)-2-(4-fluorophenyl)cyclopropyl]amino}-1-(4-methylpiperazin-1-yl)-1-oxopentan-2-yl]-4-(1H-1,2,3-triazol-1-yl)benzamide]
sNF96.2; 144 h
  EC50: 1.28 nM
sNF02.2; 144 h
  EC50: 0.094 nM

## COc1cc([C@@H]2c3cc4c(cc3[C@@H](O[C@@H]3O[C@@H]5CO[C@@H](C)O[C@H]5[C@H](O)[C@H]3O)[C@H]3COC(=O)[C@H]23)OCO4)cc(OC)c1O [etoposide]
NMS-2; cell viability, NMS-2, 6 days of treatment
  EC50: 154 nM
sNF96.2
  EC50: 108 nM
S462
  EC50: 376 nM
MPNST-NF1-18b
  EC50: 394 nM
HS-PSS
  EC50: 205 nM
sNF02.2
  EC50: 144 nM
ST88-14
  EC50: 788 nM
MPNST-SP-10
  EC50: 269 nM
MPNST-SP-01; cell viability, MPNST-SP-01, 6 days of treatment
  EC50: 1030 nM
MPNST-NF1-09; cell viability, MPNST-NF1-09, 6 days of treatment
  EC50: 737 nM
90-8TL
  EC50: 164 nM
MPNST-NF1-08; cell viability, MPNST-NF1-08, 6 days of treatment
  EC50: 740 nM
